Source: a melting point compilation (Tetko et al.; mined from patent text by program, amines drawn as free bases though some values may be those of a salt)

Row | melting point | SMILES
1 | 120 to 123 °C | Cc1cc(C2=C(C=CC3CC(O)CC(=O)O3)C(C)(C)CC(N3CCCC3)C2)ccc1F (stereo not drawn)
2 | 223 to 225 °C | COc1cccc2c1nc(C(F)F)n2-c1nc(NC2CCN(C(=O)OC(C)(C)C)CC2)c(N)c(N2CCOCC2)n1
3 | 153 to 155 °C | CC(C)(Cc1ccccc1)OC(=O)Nc1ccc(-c2ncn(-c3ccc(OC(F)(F)F)cc3)n2)cc1
4 | 97 to 98 °C | CCCCC1CCc2c(OCc3ccc4ccccc4n3)cccc2C1=O (stereo not drawn)
5 | 75 to 76 °C | O=C(CCCCCCS(=O)(=O)c1ccc2ccccc2c1)c1ncco1
6 | 235 to 237 °C | CCN1C(C(=O)Nc2coc3ccccc3c2=O)C(=O)c2ccccc2S1(=O)=O (stereo not drawn)
7 | 216 to 217 °C | Oc1ccc(-c2cc3c(O)cc(O)cc3o2)cc1
8 | 221 to 223 °C | CC(Cc1cc(I)c(Oc2ccc(O)cc2)c(I)c1)(NC=O)C(=O)O (stereo not drawn)
9 | 152 to 154 °C | CCCN1CCN(c2cc3ccccc3c(=O)[nH]2)CC1CO (stereo not drawn)
10 | 144 °C | CC(=O)OCc1csc(=S)n1CCC(=O)O
11 | 203 to 205 °C | CCOC(=O)C(C#N)=C(C)Nc1ccnc(-c2ccncc2)n1
12 | 151 °C | C#CCSc1nn(C(=O)NS(=O)(=O)c2c(C)cccc2OCCC)c(=O)n1C
13 | 144 to 145 °C | COc1ccc(CO)cc1OCc1nc(-c2ccccc2)oc1C
14 | 75 to 82 °C | CCCCN(c1nc(Cl)nc(N(CCCC)C2CC(C)(C)N(OC3CCCCC3)C(C)(C)C2)n1)C1CC(C)(C)N(OC2CCCCC2)C(C)(C)C1
15 | 106 °C | CCN(CC)CC(O)Cn1cc(-c2ccccc2)c2ccccc2c1=O (stereo not drawn)
16 | 74 to 74.5 °C | C=Cn1c2ccccc2c2cc(Br)ccc21
17 | 107 to 109 °C | COC(=O)CCCc1cc2cc(Cl)ccc2n1S(=O)(=O)c1cccc(OC)c1
18 | 176 to 177 °C | O=c1[nH]c2cc(OCCN3CCC(Cc4ccccc4)CC3)ccc2o1
19 | 241 °C | O=C1Nc2ccc(Cl)cc2C1(Cl)c1cccc2c1OCO2 (stereo not drawn)
20 | 164 to 165 °C | Cc1ccc(-c2nn3cccnc3c2CC(=O)N(C)C)cc1
21 | 159 to 160 °C | CC(C)(C)c1cc(CCc2cc(F)cc(F)c2NC(=O)NCC(C)(C)c2ccc(Cl)c(Cl)c2)cc(C(C)(C)C)c1O
22 | 113 to 115 °C | CCCCCCCNC(=O)Nc1ccc(NC(C)=O)cc1C(=O)NC1CCN(C(c2ccccc2)c2ccccc2)CC1

Row | melting point | SMILES
23 | 254 to 255 °C | O=C(O)c1c[nH]c(=O)n(-c2ccccc2S)c1=O
24 | 203 to 204 °C | Cc1ccccc1C(=O)Nc1ccc(C(=O)N2CCCC(OCC(=O)N(C)C)c3ccccc32)cc1 (stereo not drawn)
25 | 122 to 123 °C | CCOC(=O)/C=C/c1cc(C(C)C)c(OC(C)=O)c2c(C)cccc12
26 | 138 to 141 °C | CCCCn1c(=O)c(N)c(-c2cccc(OC)c2)c2cccnc21
27 | 128 to 132 °C | O=Cc1cccn1Cc1ccccc1[N+](=O)[O-]
28 | 148 to 149 °C | CC(C)(C)N(Cc1ccccc1)CC(O)c1ccc(OCc2ccccc2)c(C(O)CO)c1 (stereo not drawn)
29 | 189 to 192 °C | CC(C)c1cccc(C(C)C)c1NC(=O)NCC1(c2ccc(Cl)cc2)CCCC1
30 | 92 to 96 °C | NC(=O)Cc1ccc(OCC(O)CNCCCn2cnc3ccccc32)cc1 (stereo not drawn)
31 | > 290 °C | CCOC(=O)c1cnc2cc3c(cc2c1O)OCO3
32 | 121 to 123 °C | CN1c2ccc(Cl)cc2C(c2ccccc2Br)=Nc2cccnc21
33 | 118 to 120 °C | CCc1cn(C2CC(N=[N+]=[N-])C(CO)O2)c(=O)[nH]c1=O (stereo not drawn)
34 | 139 to 141 °C | COc1ccc(C=C(C#N)c2c[nH]c3ccccc23)cc1OC
35 | 153 to 155 °C | Cc1ccc(C(=O)Nc2ccc(CN3CCN(C)CC3)cc2)cc1Nc1nccc(-c2cccnc2)n1
36 | 152 to 155 °C | CCCCOc1ccc2c(C(F)(F)F)c(OC)ccc2c1C(=O)N(C)CC(=O)O
37 | 175 to 192 °C | N=C(N)Nc1nc(CSCCC2=NS(=O)(=O)NC(N)=N2)cs1
38 | 112 to 115 °C | CC(C)CCCc1c(-c2ccc(S(C)(=O)=O)cc2)cnn(-c2ccc(F)cc2)c1=O
39 | 53 to 55 °C | NS(=O)(=O)Oc1cccc(F)c1
40 | 97 to 99 °C | CC(=O)OC1CSC(Oc2cncc(S(=O)(=O)c3ccccc3)c2)C(OC(C)=O)C1OC(C)=O (stereo not drawn)
41 | 156 to 157 °C | CCn1cc(-c2cccc(C(F)(F)F)c2)c(=O)n1-c1ccccc1
42 | > 250 °C | O=C(O)c1[nH]c2cc(Cl)cc(Cl)c2c1C=C1CCNN(c2ccccc2)C1=O
43 | 86 to 88 °C | COc1ccc(N2CCN(CCC3OCCc4cc(C#N)ccc43)CC2)cc1 (stereo not drawn)
44 | 123 to 126 °C | C=CCc1ccc(-c2nc3c(N[C@H]4[C@@H](C(N)=O)[C@@H]5C=C[C@H]4C5)c(Cl)cnc3[nH]2)c(OC)c1

Row | melting point | SMILES
45 | 141 to 143 °C | CC(C)N1C(=O)CCCc2cc(Nc3ncc(Cl)c(N[C@@H]4CCCC[C@H]4NS(C)(=O)=O)n3)ccc21
46 | 173 °C | COc1ccc(C(=O)Nc2nc3ccc(N4CCN(C)CC4)cc3c(NCc3ccccc3)c2C#N)cc1
47 | 107 to 109 °C | O=C(c1ccc(F)cc1)C1CCN(CCCO)CC1
48 | 159 to 161 °C | CC(=O)Oc1ccc(CN2C(=O)C(=O)c3ccccc32)cc1
49 | 130 to 131 °C | CCOC(=O)C1=C(C)NC(c2ccco2)=C(C(=O)OCC)C1c1cccc([N+](=O)[O-])c1 (stereo not drawn)
50 | 144 to 145 °C | CCOC(=O)c1c(O)c(Br)c(Br)n1-c1ccccc1
51 | 76 to 80 °C | COC(=O)C(Br)c1ccc(OCCOc2ccc(Cl)cc2)cc1 (stereo not drawn)
52 | 62 to 65 °C | CCCCCOc1ccc(-c2ccc(-c3ccccc3CC)cc2)cc1
53 | 207 to 211 °C | C[C@]1(COc2ccc(N3CCC(Cc4ccc(Cl)cc4)CC3)cc2)Cn2cc([N+](=O)[O-])nc2O1
54 | 165 to 167 °C | CCNC(=O)c1cc([N+](=O)[O-])ccc1Oc1cncc(Cl)c1
55 | 69 °C | CC(C)n1nc(CS(C)=O)cc1O (stereo not drawn)
56 | 146 °C | CC(C)(C)C(O)(c1ccccc1)c1cc(Cl)ccc1O (stereo not drawn)
57 | 150 to 151 °C | CCOC(=O)CCc1cc(O)nn1-c1ccccc1
58 | 157 to 158 °C | Cn1c(CNCC2CCOCC2)cc2cc(NC(=O)c3ccc(OC[C@@H]4CCCO4)cc3)ccc21
59 | 141 to 142 °C | CC(=O)OCC1CCC2C3CCC4=CC(=O)CCC4(C)C3CCC12C (stereo not drawn)
60 | 197 to 199 °C | CCc1noc(-c2ncc3[nH]c4c(c3c2COC)CCCC4)n1
61 | 78.1 to 79.5 °C | COc1ccc(Cc2nc3c(N)nc4ccccc4c3n2CCCCNS(C)(=O)=O)cc1
62 | 223 to 226 °C | COc1cc(Cc2cnc(N)nc2N)cc(-c2cccc(NS(=O)(=O)c3ccc(N)cc3)c2)c1OC
63 | 178 to 180 °C | COC(=O)c1cc(NN=C(c2ccccc2)c2ccccc2)c(C#N)s1
64 | 184 to 185 °C | CC(=O)N1CCCn2nc(-c3ccncc3)c(-c3ccc(F)cc3)c21
65 | 139 to 140 °C | Cc1c(C)c2c(c(C)c1N)CC(C)(CSCCC(=O)O)O2 (stereo not drawn)
66 | 169 to 170 °C | CCCC1(COC)CCCSc2cc(/C=C/c3ccc(C(=O)O)cc3)ccc21 (stereo not drawn)

Row | SMILES | melting point
67 | CC1CC(C)(C)c2cccc(NC(=O)c3cn(C)nc3C(F)F)c21 (stereo not drawn) | 131 to 134 °C
68 | OC1(c2ccc(-c3cccnc3)cc2)CN2CCC1CC2 (stereo not drawn) | 172 to 173 °C
